Experimental data taken from patent US8933039B2 (NPS Pharmaceuticals, Inc., priority 1995, dated 2015).
Non-standard residues stand in square brackets, D forms with d. Residues, ends and D or L forms follow the SMILES beside them. No end group written: not given here. Aib = CC(C)(N)C(=O)O

Experiments:
CD1 mice = assay: Intestinotrophic activity assessment: small bowel weight in mice; format: in vivo; conditions: for % Activity (small bowel inducing activity relative to native rat GLP-2(1-33) = 100%): mice, as Example 4; for % Increase in small bowel weight: CD1 mice, 2.5 μg peptide s.c. b.i.d. in PBS, sacrificed 10 or 14 days, relative to vehicle only
Protocol: Recipients were CD1 mice obtained from Charles River Laboratory (Ontario, Canada). The CD1 mice were aged-matched females at time of injection (n=3-4 per group), 6 weeks of age, unless otherwise specified. The animals were allowed a minimum of 24 hours to acclimatize to the laboratory facility before the initiation of each experiment. Animals were identified by ear punch. The mice were not restricted by diet or activity during the experiments. The light/dark cycle was 12 hours, between 6 pm to 6 am. Controls were age- and sex-matched (n=3-4) animals. Mice were injected subcutaneously, twice a day (b.i.d.), with 2.5 μg peptide in a total volume of 0.5 cc of PBS and were monitored daily in the laboratory facility. Animals were sacrificed 10 or 14 days after injection, and were fasted at least 20 hours before sacrifice.
The mice were anaesthetised with CO2 and exsanguinated by cardiac puncture. Blood was collected in 75 μl of TED (Trasysol; EDTA (5000 KIU/ml: 1.2 mg/ml; Diprotin-A), and the blood was centrifuged at 14 k×g for 5 minutes and the plasma was stored at −70 prior to analysis. The small bowel was removed from the peritoneal cavity, from pylorus to cecum, cleaned weighed and measured. For comparative purpose, sections from each animal were obtained from the identical anatomical position. Fragments each measuring 1.5-2.0 cm in length were obtained 8±2 cm, 18±2 cm, 32±2 cm from pylorus for histomorphometry representing proximal jejunum, distal jejunum and distal ileum. Each small bowel fragment was opened longitudinally on its antimesenteric border in a tissue block and then placed on 10% formalin (vol./vol.) overnight, then transferred to 70% […].
Percentage change in small bowel weight was calculated by dividing the mean change in bowel weight of analog treated mice, relative to mice treated with vehicle only, by the mean bowel weight of mice treated with vehicle only, and multiplying this figure by 100.
Experiments assessing the small bowel inducing activity of various analogs was repeated as described above for Example 4. In these experiments, the small bowel inducing activity of each analog in mice was calculated relative to that of native rat GLP-2(1-33) (expressed as 100% of activity). Resistance of analogs to DPP-IV cleavage was performed as described above in Example 3.

DPP-IV = DPP-IV (Homo sapiens, UniProt P27487); assay: Assay for resistance to dipeptidyl peptidase IV (RP-HPLC of cleavage product); conditions: human, isolated human placental DPP-IV (dipeptidyl peptidase IV), pH 7.4, % Cleaved by DPP-IV, as Example 3: human placental DPP-IV, 37° C., PBS pH 7.4
Sequence of DPP-IV (P27487 whole entry): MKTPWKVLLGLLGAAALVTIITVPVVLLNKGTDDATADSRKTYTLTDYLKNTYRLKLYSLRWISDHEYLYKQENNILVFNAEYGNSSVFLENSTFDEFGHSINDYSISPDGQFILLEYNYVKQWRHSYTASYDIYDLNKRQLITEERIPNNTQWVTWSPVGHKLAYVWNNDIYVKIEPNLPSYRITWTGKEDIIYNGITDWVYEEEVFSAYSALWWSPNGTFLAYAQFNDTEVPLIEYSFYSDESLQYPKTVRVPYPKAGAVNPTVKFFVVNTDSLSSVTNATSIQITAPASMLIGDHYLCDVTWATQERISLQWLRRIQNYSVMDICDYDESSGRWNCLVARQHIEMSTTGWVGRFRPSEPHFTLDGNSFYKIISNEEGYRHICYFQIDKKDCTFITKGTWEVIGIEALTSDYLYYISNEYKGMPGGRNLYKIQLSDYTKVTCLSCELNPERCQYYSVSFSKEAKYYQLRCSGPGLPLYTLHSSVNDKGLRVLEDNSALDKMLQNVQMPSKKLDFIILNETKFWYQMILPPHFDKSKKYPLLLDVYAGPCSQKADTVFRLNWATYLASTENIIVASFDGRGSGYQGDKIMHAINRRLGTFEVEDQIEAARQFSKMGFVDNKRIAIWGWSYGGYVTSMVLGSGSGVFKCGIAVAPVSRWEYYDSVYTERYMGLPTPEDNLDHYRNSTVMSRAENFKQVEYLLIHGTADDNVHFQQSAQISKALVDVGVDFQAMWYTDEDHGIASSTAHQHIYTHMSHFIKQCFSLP

Row | Compound | % Activity (small bowel inducing activity relative to native rat GLP-2(1-33) = 100%) (CD1 mice) | metabolised at 24 h, 0.19 mg/ml (DPP-IV) | % Increase in small bowel weight (CD1 mice)
1 | CC[C@H](C)[C@H](NC(=O)[C@H](Cc1ccccc1)NC(=O)[C@H](CC(=O)O)NC(=O)[C@H](CCCNC(=N)N)NC(=O)[C@H](C)NC(=O)[C@H](C)NC(=O)[C@H](CC(C)C)NC(=O)[C@H](CC(N)=O)NC(=O)[C@H](CC(=O)O)NC(=O)[C@H](CC(C)C)NC(=O)[C@@H](NC(=O)[C@@H](NC(=O)[C@H](CC(N)=O)NC(=O)[C@H](CCSC)NC(=O)[C@H](CCC(=O)O)NC(=O)[C@H](CC(=O)O)NC(=O)[C@H](CO)NC(=O)[C@H](Cc1ccccc1)NC(=O)[C@H](CO)NC(=O)CNC(=O)[C@H](CC(=O)O)NC(=O)C(C)(C)NC(=O)[C@@H](N)Cc1c[nH]cn1)[C@@H](C)O)[C@@H](C)CC)C(=O)N[C@@H](CC(N)=O)C(=O)N[C@@H](Cc1c[nH]c2ccccc12)C(=O)N[C@@H](CC(C)C)C(=O)N[C@H](C(=O)N[C@@H](CCC(N)=O)C(=O)N[C@H](C(=O)N[C@@H](CCCCN)C(=O)N[C@H](C(=O)N[C@H](C(=O)N[C@@H](CC(=O)O)C(=O)O)[C@@H](C)O)[C@@H](C)CC)[C@@H](C)O)[C@@H](C)CC [[Aib2]hGLP-2(1-33)] (H-H[Aib]DGSFSDEMNTILDNLAARDFINWLIQTKITD-OH) | 202% | 0% | –
2 | CC[C@H](C)[C@H](NC(=O)[C@H](Cc1ccccc1)NC(=O)[C@H](CC(=O)O)NC(=O)[C@H](CCCNC(=N)N)NC(=O)[C@H](C)NC(=O)[C@H](C)NC(=O)[C@H](CC(C)C)NC(=O)[C@H](CC(N)=O)NC(=O)[C@H](CC(=O)O)NC(=O)[C@H](CC(C)C)NC(=O)[C@@H](NC(=O)[C@@H](NC(=O)[C@H](CC(N)=O)NC(=O)[C@H](CCSC)NC(=O)[C@H](CCC(=O)O)NC(=O)[C@H](CC(=O)O)NC(=O)[C@H](CO)NC(=O)[C@H](Cc1ccccc1)NC(=O)[C@H](CO)NC(=O)CNC(=O)[C@H](CC(=O)O)NC(=O)[C@@H](C)NC(=O)[C@@H](N)Cc1c[nH]cn1)[C@@H](C)O)[C@@H](C)CC)C(=O)N[C@@H](CC(N)=O)C(=O)N[C@@H](Cc1c[nH]c2ccccc12)C(=O)N[C@@H](CC(C)C)C(=O)N[C@H](C(=O)N[C@@H](CCC(N)=O)C(=O)N[C@H](C(=O)N[C@@H](CCCCN)C(=O)N[C@H](C(=O)N[C@H](C(=O)N[C@@H](CC(=O)O)C(=O)O)[C@@H](C)O)[C@@H](C)CC)[C@@H](C)O)[C@@H](C)CC [[D-Ala2]hGLP-2(1-33)] | 130% | 0% | –
3 | CC[C@H](C)[C@H](NC(=O)[C@H](Cc1ccccc1)NC(=O)[C@H](CC(=O)O)NC(=O)[C@H](CCCNC(=N)N)NC(=O)[C@H](C)NC(=O)[C@H](C)NC(=O)[C@H](CC(C)C)NC(=O)[C@H](CC(N)=O)NC(=O)[C@H](CC(=O)O)NC(=O)[C@H](CC(C)C)NC(=O)[C@@H](NC(=O)[C@@H](NC(=O)[C@H](CC(N)=O)NC(=O)[C@H](CCSC)NC(=O)[C@H](CCC(=O)O)NC(=O)[C@H](CC(=O)O)NC(=O)[C@H](CO)NC(=O)[C@H](Cc1ccccc1)NC(=O)[C@H](CO)NC(=O)CNC(=O)[C@H](CC(=O)O)NC(=O)CNC(=O)[C@@H](N)Cc1c[nH]cn1)[C@@H](C)O)[C@@H](C)CC)C(=O)N[C@@H](CC(N)=O)C(=O)N[C@@H](Cc1c[nH]c2ccccc12)C(=O)N[C@@H](CC(C)C)C(=O)N[C@H](C(=O)N[C@@H](CCC(N)=O)C(=O)N[C@H](C(=O)N[C@@H](CCCCN)C(=O)N[C@H](C(=O)N[C@H](C(=O)N[C@@H](CC(=O)O)C(=O)N[C@@H](CCCNC(=N)N)C(=O)O)[C@@H](C)O)[C@@H](C)CC)[C@@H](C)O)[C@@H](C)CC [[Gly2, Arg34]hGLP-2(1-34)] | ~250% | 0% | –
4 | H-HGDGSFSDEMNTALDNLAARDFINWLIQTKITD-OH [[Gly2,Ala13]hGLP-2(1-33)] | 67% | – | 18%
5 | H-HGDGSFSDEMNTIADNLAARDFINWLIQTKITD-OH [[Gly2,Ala14]hGLP-2(1-33)] | 30% | – | –
6 | H-HGDGSFSDEMNTILDALAARDFINWLIQTKITD-OH [[Gly2,Ala16]hGLP-2(1-33)] | 130% | – | 36%
7 | H-HGDGSFSDEMNTILDNAAARDFINWLIQTKITD-OH [[Gly2,Ala17]hGLP-2(1-33)] | 130% | – | 36%
8 | H-HGDGSFSDEMNTILDNLAAADFINWLIQTKITD-OH [[Gly2,Ala20]hGLP-2(1-33)] | 105% | – | 46%
9 | H-HGDGSFSDEMNTILDNLAARAFINWLIQTKITD-OH [[Gly2,Ala21]hGLP-2(1-33)] | 125% | – | 35%
10 | H-HGDGSFSDEMNTILDNLAARDFANWLIQTKITD-OH [[Gly2,Ala23]hGLP-2(1-33)] | 24% | – | –
11 | H-HGDGSFSDEMNTILDNLAARDFINALIQTKITD-OH [[Gly2,Ala25]hGLP-2(1-33)] | 18% | – | –
12 | H-HGDGSFSDEMNTILDNLAARDFINWAIQTKITD-OH [[Gly2,Ala26]hGLP-2(1-33)] | 28% | – | –
13 | H-HGDGSFSDEMNTILDNLAARDFINWLAQTKITD-OH [[Gly2,Ala27]hGLP-2(1-33)] | 82% | – | 22%
14 | H-HGDGSFSDEMNTILDNLAARDFINWLIATKITD-OH [[Gly2,Ala28]hGLP-2(1-33)] | 130% | – | 31%
15 | H-HGDGSFSDEMNTILDNLAARDFINWLIQTAITD-OH [[Gly2,Ala30]hGLP-2(1-33)] | 24% | – | –
16 | H-HGDGSFSDEMNTILDNLAARDFINWLIQTKATD-OH [[Gly2,Ala31]hGLP-2(1-33)] | 100% | – | 28%
17 | HSQGSFSDEMNTILDNLAARDFINWLIQTKITD [[Ser2,Gln3]hGLP-2(1-33)] | – | 0% | –
18 | RRADGSFSDEMNTILDNLATRDFINWLIQTKITD [[Arg-2,Arg-1]ratGLP-2(2-33)] | – | 0% | –
19 | [Met SO2^10]rGLP-2 | – | – | 8%
